For series [1], the system named is HT29 cells. Description: Wound healing assay. The format is cell-based, human. As to the method: (§1) For wound healing assay, HT29 cells were seeded in 90% confluency, a wound was scratched using a P-20 tip the next day. Cell debris was washed with PBS then aspirated. Then, complete DMEM medium with CL16 or Rhosin with corresponding concentration was added to the cells. Wound closure was recorded every 24 hours under light microscope with 10× objective and measurement of wound area was made by ImageJ.
As discussed above, overexpression/hyperactivity of RhoA associated with poor prognosis and aggressive behaviors of CRCs (FIG. 8A). Thus, the anti-cancer and anti-metastatic properties of CL16 in CRCs were explored. First, it was confirmed that genetic knockdown of RhoA by siRNA slowed down colony formation and migration of CRCs by using staining (data not shown) and wound healing assay (FIG. 4A). MTT assay was used to determine cell viability of CRCs and normal colon fibroblast CCD-18Co cells treated with CL16 for 48 h (n=3 different biological replicates/group). A much lower expression level of RhoA in normal colon fibroblast CCD-18Co cells was also determined, as compared to CRCs, by western blotting (data not shown). […] HT29 cells were transfected with siRNA (5 μM) using Dharmafect1 for 48 hours, and protein expressions were then investigated by immunoblotting.

The subject of series [2] is HCT116 cells. Nature of the series: Flow cytometry cell cycle analysis. The format is cell-based, human. To be noted: HCT116, 24 h. As to the method: HCT116 cells were seeded onto 6-well plates (500,000 cells) and cultured overnight in complete medium at 37° C. with 5% CO2. After treatment with DMSO control or CL16 at the indicated concentration for 24 h, cells were harvested by trypsin digestion, washed with PBS, and fixed in 70% cold ethanol on ice for 30 minutes. The cells were then centrifuged at 250g for 5 min and resuspended in staining buffer (PBS with 0.05% Triton X-100) containing propidium iodide (50 μg/mL) and RNase (100 μg/mL) for 30 min at 37° C. in the dark. The cells were then filtered through a 40 μm strainer and analyzed by flow cytometry. Representative FACS plots were developed to illustrate the gating strategy in studying cell cycle. The NovoCyte Advanteon BVYG analyzer was used to acquire cell events, and the data were processed using NovoExpress software.
The molecular mechanisms of anticancer effects from CL16 were investigated. […] Immunoblotting of cell cycle checkpoint proteins in HCT116 cells underwent CL16 treatment for 24 h.
On the technique in general: Flow cytometry measures light scatter and fluorescence of single cells or particles in a stream.

Series [3] relates to SL4 cells. Nature of the series: MTT assay on mouse CRC cells SL4. To be noted: complete medium 48 h. In kind it is cell-based. The method, then:
FIG. 13A is a graph showing the cell viability, which was examined by MTT assay. SL4 cells were treated with solvent vehicle or CL16 in complete medium for 48 h.
Antitumor effects of CL16 in an immunocompetent, orthotopic mouse CRC model, which was established by the inoculation of mouse CRC cells, SL4, intracecally were examined (FIG. 20). […] Immunohistochemistry staining of CD3, CD4, CD8, Ki67 was conducted, with cleaved caspase-3 and VEGFR2 on tumor tissues from the vehicle- or CL16-treated mice.
Background: Formazan colour is commonly taken as a measure of viable cells.

Series [4] deals with CRCs. Description: MTT assay on CRC cells. The format is cell-based, human. The following applies: 48 h. As to the method: HCT116 cells was seeded at 2,500 cells/well; HT29, LOVO and SW620 cells were seeded at 4,000 cells/well; CCD-18Co cells were seeded at 10,000/well; and SW480 cells were seeded at 12,000 cells/well in 96 well plate in triplicates. Cells were treated with a concentration gradient of CL16 for 48 hours. Then, cells were incubated with 10% 3-(4,5-Dimethylthiazol-2-yl)-2,5-diphenyltetrazolium bromide (MTT) solution ([…]) in 37° C. for 4 hours. Cells were then lyzed in 10% SDS in […] HCl. Absorbance of individual well was measured at 570 nm. IC50 values were analyzed by nonlinear best-fit regression using Prism Graphpad 9.
As discussed above, overexpression/hyperactivity of RhoA associated with poor prognosis and aggressive behaviors of CRCs (FIG. 8A). Thus, the anti-cancer and anti-metastatic properties of CL16 in CRCs were explored. First, it was confirmed that genetic knockdown of RhoA by siRNA slowed down colony formation and migration of CRCs by using staining (data not shown) and wound healing assay (FIG. 4A). MTT assay was used to determine cell viability of CRCs and normal colon fibroblast CCD-18Co cells treated with CL16 for 48 h (n=3 different biological replicates/group). A much lower expression level of RhoA in normal colon fibroblast CCD-18Co cells was also determined, as compared to CRCs, by western blotting (data not shown). […]

The test system of series [5] is HT29 cells expressing RhoA WT. Description: Wound healing assay on HT29 cells expressing RhoA WT. The format is cell-based, human. To be noted: 48 h. As to the method:
as §1
The effects of CL16 in HT29 cells expressing RhoA WT protein and HT29 cells with RhoA C16 Å knock-in by CRISPR-Cas9 were investigated, respectively, to validate the molecular mechanism of RhoA inhibition and anti-cancer properties from CL16. […] HT29 cells expressing RhoA WT or C16 Å protein were incubated with solvent vehicle, CL16 or Rhosin in complete medium for 24 h. The cells were then washed, lysed, subjected to rhotekin pull-down and immunoblotted. […] Wound healing assay on HT29 cells expressing RhoA WT or C16 Å protein were incubated with solvent vehicle, CL16 or Rhosin in complete medium for 48 h (FIGS. 19A and 19B).

In series [6] the target is RhoA (Homo sapiens, UniProt P61586). Description: RhoA-GTP rhotekin pull-down in HT29 cells, complete medium. To be noted: HT29, complete medium 24 h. The format is cell-based. Further details: endogenous in cells; host or cells: HCT116, HT29. The method, then:
RhoA Pull-Down Activation Assay Biochem Kit (#BK036) was purchased from Cytoskeleton. According to the manufacturer's protocol, total cell lysate (0.5 mg/mL; 300 μL) was added to 7.5 μL of Rhotekin-Rho Binding Domain beads in 0.6 mL tubes. The solution mixture was incubated at 4° C. on an end-to-end rotator for 1 hour. Beads were washed with 500 μL of washing buffer once, then centrifuged at 5000g for 3 min and the supernatant was discarded. RhoA-GTP was then eluted in 2× laemmli buffer and resolved in 10% SDS-PAGE.
GTP loading onto RhoA is critical for the protein activation and mediating downstream signals. In view of the inhibitions of GDP-to-GTP exchange of RhoA by CL16 in vitro as discussed above, effects of CL16 on RhoA biology in colorectal cancer cells were examined. In the serum starvation-re-stimulation experiment, HCT116 cells were grown in serum-free medium with CL16, Rhosin or solvent control for 24 h, followed by stimulation with 10% FBS for 10 min. The cells were then lysed and the RhoA activity was assayed by the level of RhoA-GTP, which is the active form of RhoA. […] HT29 cells were incubated with solvent vehicle, CL16 or Rhosin in complete medium for 24 h. […] Confocal fluorescence images from HCT116 and HT29 cells expressing FRET RhoA-biosensor in the serum starvation-restimulation experiment were taken.

Chain of RhoA (P61586 whole entry, the tested form may be a part): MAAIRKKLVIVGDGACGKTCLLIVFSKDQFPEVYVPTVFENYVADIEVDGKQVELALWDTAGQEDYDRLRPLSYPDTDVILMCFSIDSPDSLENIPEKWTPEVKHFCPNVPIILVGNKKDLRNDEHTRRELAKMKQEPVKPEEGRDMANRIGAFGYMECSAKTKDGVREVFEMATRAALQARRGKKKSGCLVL

On to `O=C(CCl)N1N=C(c2cc3ccccc3o2)CC1c1ccco1` (stereo not drawn) [CL16], for which the cell migration entry in series [1] is “good efficacy in reducing HT29 cell migration and invasion”; in series [5], “decrease in cell migration”. In series [2], the “G2 phase cell population” value is “significant increase in G2 phase cell population”. Further, the “viability of SL4” value in series [3] is listed as “significantly decreased the viability”. Further, the “cytotoxicity (cell viability)” value in series [4] is “cytotoxicity effects”. Moreover, in series [6], the “RhoA activity (RhoA-GTP)” value is “specific inhibition of RhoA activity”.

Values taken from patent publication US20250073209A1, “COVALENT TARGETING OF RhoA FOR CANCER THERAPY” (The University of Hong Kong, priority 2023, published 2025).
